Legend:
[1] = Peroxidase activity, H2O2-dependent oxidation of ABTS; format: biochemical; conditions: C7 with 29 units/ml bovine liver catalase, 10 mM H2O2
Description: Peroxidase activity was assayed by monitoring the hydrogen peroxide-dependent oxidation of 2,2′-azino-bis(3-ethylbenzthiazoline-6) sulfonic acid (ABTS) spectrophotometrically. Standard assay mixtures consisted of 50 mM sodium phosphate, pH 8.1, 0.9% sodium chloride, 0.5 mM ABTS, and H2O2 and salen manganese complex as indicated. Where indicated, 50 mM sodium phosphate buffers of pH 6.0 or pH 7.1 were substituted. Assays were conducted at 27±0.2° C. ABTS oxidation was monitored at 740 or 500 nm to eliminate interference by the salen manganese complexes, many of which absorb in the vicinity of the λmax of oxidized ABTS, and to avoid absorbance values that exceeded the linear range of the spectrophotometer. The amount of oxidized ABTS was estimated using an Δε740 of 20,300 M^−1cm^−1 or an Δε500 of 3400 M^−1cm^−1 calculated based upon the published molar extinction coefficient oat 405 nm (36,800).
Compounds were assayed for SOD as described under Experimental procedures, using cytochrome C as acceptor. The concentration of each compound showing half-maximal activity in this assay is presented. Catalase and peroxidase activities were conducted as described under Experimental Procedures, with 10 μM salen manganese complex. The H2O2 concentration was 10 mM and 0.2 mM in the catalase and peroxidase assays, respectively. Where denoted, “nd” means that the assay was not performed on this compound.
Catalase and peroxidase activities were assayed as described in Example 2. Catalase assays contained 10 μM salen-manganese complex and 10 mM hydrogen peroxide. Peroxidase assays contained 10 μM salen-manganese complex and 0.2 mM hydrogen peroxide. Glucose-glucose oxidase toxicity assays were performed using human dermal fibroblasts as described in Example 2.

[2] = system: dopaminergic neurons in mouse brain; test: MPTP animal model of Parkinson's disease, mazindol binding
Description: This model is now widely accepted in the art and is used for evaluating potential therapeutic agents for this disease.
Tritiated mazindol was used for binding studies on samples of the globus pallidus, caudate nucleus, and striatum of mouse brain according to conventional methods; specific binding of tritiated mazindol was determined autoradiographically or by membrane binding (specific binding to the membrane fraction). The experiment was performed over a 7 day period. Mice in the MPTP group were treated […] with MPTP alone (40 mg/kg each day on days 1 and 2). […] The animals were sacrificed after 7 days.
MPTP in mice. Adult male CFW mice (25-33 g) were administered two injections of MPTP dissolved in normal saline (40 mg/kg, s.c.) 24 hours apart. […] Animals were sacrificed 7 days after the first MPTP injection, and neuronal pathology was assessed by the binding of ^3H-mazindol, a ligand for the dopamine transporter, to […] frozen brain sections or to striatal homogenates.

[3] = system: dopaminergic neurons in mouse striatum; test: 6-OHDA in mice, 3H-mazindol binding in striatal homogenates; format: in vivo; conditions: C7 4×66 mg/kg; 6-OHDA 50 μg i.c.v.
Description: 6-OHDA in mice. Adult male CFW mice were anesthetized with ketamine and rumpun, and immobilized in a stereotaxic device. 6-OHDA, as the hydrobromide salt, was dissolved in normal saline with 1% ascorbate, and 50 μg was administered in lateral ventricle by means of a 10 μl Hamilton syringe. […] Animals were sacrificed 7 days later, and neuronal pathology was assessed by measuring ^3H-mazindol binding in striatal homogenates.

Hippocampal slices = test: Lactic acid (acidosis)-induced lipid peroxidation in hippocampal slices; format: cell-based, Sprague-Dawley rats; conditions: 50 μM; 30 mM lactate, pH 5.0, 100 minutes
Description: Hippocampal slices (400 μm thick) were obtained from Sprague-Dawley rats (150-200 g) and collected in preoxygenated (95% O2/5% CO2) Krebs-Ringer phosphate medium (pH 7.4) containing NaCl 120 mM, KCl 5 mM, CaCl2 1.3 mM, MgCl2 1.2 mM, NaPhosphate 16 mM (pH 7.4) and glucose 10 mM. After 15 minutes preincubation in a water bath at 35° C. under agitation, the buffer was replaced with the same buffer (control) or a modified buffer (lactate buffer) containing NaCl 90 mM, KCl 5 mM, CaCl2 1.3 mM, MgCl2 1.2 mM, NaPhosphate 16 mM and lactic acid 30 mM (pH 5.0). […] After 100 minutes, slices were collected and homogenized in 0.9 ml of TCA 5%, whereas 0.35 ml of TCA 5% was added to 0.5 ml of the incubation medium. Lipid peroxidation was measured by adding 0.25 ml of a thiobarbituric acid reagent (TBAR) to 0.85 ml of the TCA extracts and incubating the mixture for 60 minutes at 85-93° C. Lipids were then extracted with 2×0.5 ml 1-butanol by vortexing for 10 seconds, then centrifuging at 2,000 rpm for 10 minutes. The absorbance of peroxidized lipids in the alcohol phase was measured in a spectrophotometer at 532 nm. Data were expressed as nmoles of malondialdehyde (MDA) using authentic MDA to establish a standard curve. Proteins were measured from an aliquot of the TCA extracts using the method of Bradford and the final results were calculated as nmoles MDA formed/mg protein. […]

In the case of `[Cl][Mn]1[O]c2ccccc2C=NCCN=Cc2ccccc2[O]1` [Compound C7], the “total ABTS oxidized in the presence of added catalase” value [1] is reported as 18 µM, the “number of surviving dopaminergic neurons in mice treated with MPTP” value ([2]; C7 33 mg/kg i.p. days 1-3, MPTP 40 mg/kg days 1 and 2, versus MPTP alone) is reported as “approximately doubled” and the “protection against the reduction in 3H-mazindol binding” value ([2]; C7 3×33 mg/kg, i.p., MPTP 2×40 mg/kg, s.c.) is reported as “significant (p<0.05) degree of protection”. The “protection against the reduction in 3H-mazindol binding measured in striatal homogenates” value ([2]; C7 3×33 mg/kg, i.p., MPTP 2×40 mg/kg, s.c., panel B) was “significant protection”, the “number of dopaminergic neurons in regions of the mouse brain, compound alone” value ([2]; C7 alone, no MPTP) was “not adversely affected” and the “effect on 6-OHDA-induced decrease in mazindol binding, contralateral striatum” value [3] was “complete protection”. The “effect on 6-OHDA-induced decrease in mazindol binding, ipsilateral striatum” value [3] was “significant reduction” and the “lactate-induced increase in lipid peroxidation (malondialdehyde)” value (Hippocampal slices) was “totally abolished the increase in lipid peroxidation”.
